Tests used:
adult mongrel dogs = experiment: Cardiotonic activity in anesthetized dogs (myocardial contractile force, i.v.); format: in vivo; settings: Canis lupus familiaris, iv, vs pretreatment control, read-out: CF: Percent increase in cardiac force; for change in vivo at 1.87 mg/kg: i.v. dose 1.87 mpk
Procedure: The cardiotonic activity of the compounds was determined in accordance with the method of Alousi, A. A., et al., J. Cir. Res. 45, 666 (1979). Basically, adult mongrel dogs were anesthetized with sodium pentobarbital and artificially respired. Arterial pressure was recorded via a femoral artery and the pressure pulse used to trigger a cardiotachometer for heart rate. Left ventricular pressure was measured with a Millar catheter and dP/dt was derived. Cardiac output was determined by measuring ascending aortic blood flow with an electromagnetic flow probe and myocardial contractile force was measured with a Walton Brodie strain gauge sutured to the right ventricle. Lead II EKG was also recorded. A standard does of dopamine was administered to assess myocardial responsiveness. Test compounds were administered by i.v. infusion or bolus administration and the effects on cardiovascular parameters were determined. Dose-related effects of the test compound on BP, HR, dP/dt max., C.F. and C.O. were compared to pretreatment control values and expressed as a percentage change.

[1] = molecular target: cyclic nucleotide phosphodiesterase; experiment: Phosphodiesterase inhibitory activity (cyclic AMP hydrolysis); format: biochemical; settings: read-out: IC50 (50% inhibition of cyclic nucleotide phosphodiesterase activity); cyclic AMP 0.10-1.0 μM, pH 7.4

IC50 [1] | SMILES | change in vivo at 1.87 mg/kg (adult mongrel dogs) | change in vivo at 0.075 mg/kg (adult mongrel dogs; i.v. dose 0.075 mpk)
9.5 µM | CS(=O)(=O)N1CCOc2ccc(C3=NNC(=O)CC3)cc21 [Example 8, 6-(3,4-Dihydro-4-methanesulfonyl-1,4(2H)-benzoxazin-6-yl)-2,3,4,5-tetrahydropyridazin-3-one] | 98% | –
22 µM | CN1C(=O)CSc2ccc(C3=NNC(=O)CC3)cc21 [Example 54, 6-(3,4-Dihydro-4-methyl-3-oxo-1,4[2H]-benzothiazin-6-yl)-2,3,4,5-tetrahydropyridazin-3-one] | – | 11%
30 µM | CC(=O)N1CCOc2ccc(C3=NNC(=O)CC3C)cc21 (racemic) [Example 16, 6-(4-Acetyl-3,4-dihydro-1,4(2H)-benzoxazin-6-yl)-2,3,4,5-tetrahydro-5-methylpyridazin-3-one] | 173% | –

— patent publication US5081242A, “6-benzoxazinyl- and 6-benzothiazinyl 2,3,4,5-tetrahydropyridazin-3-ones” (Ortho Pharmaceutical Corporation, priority 1991, dated 1992)
